This passage reports IC50, 2-AG accumulation, % of vehicle control and Kd results from patent US8362000B2, “Azetidinyl diamides as monoacylglycerol lipase inhibitors” (Janssen Pharmaceutica NV, priority 2009, dated 2013).

Molecules are shown by their SMILES. Residue numbers refer to the chain shown, from its start. Where two headings read alike, the source gives them in different places. Some results are limits rather than exact numbers.

For experiment [1], the target named is T1, purified wild type MGL (wt-MGLL 6H-11-313) (Homo sapiens, UniProt Q99685).
T1 sequence (Q99685 1-303): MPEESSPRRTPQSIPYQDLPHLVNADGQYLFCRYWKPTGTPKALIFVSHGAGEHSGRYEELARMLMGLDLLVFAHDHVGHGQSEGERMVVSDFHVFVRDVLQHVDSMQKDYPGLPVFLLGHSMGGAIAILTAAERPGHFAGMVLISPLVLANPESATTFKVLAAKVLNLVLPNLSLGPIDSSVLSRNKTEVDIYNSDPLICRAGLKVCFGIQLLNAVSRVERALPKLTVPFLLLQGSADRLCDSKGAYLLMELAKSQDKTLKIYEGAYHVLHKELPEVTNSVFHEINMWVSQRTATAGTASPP

The next experiment addresses T2, MGL (Rattus norvegicus, UniProt Q8R431).
T2 construct: one g rat brain was homogenized using a Polytron homogenizer; from tissue; host or cells: rat brain homogenate
T2 sequence (Q8R431 1-303): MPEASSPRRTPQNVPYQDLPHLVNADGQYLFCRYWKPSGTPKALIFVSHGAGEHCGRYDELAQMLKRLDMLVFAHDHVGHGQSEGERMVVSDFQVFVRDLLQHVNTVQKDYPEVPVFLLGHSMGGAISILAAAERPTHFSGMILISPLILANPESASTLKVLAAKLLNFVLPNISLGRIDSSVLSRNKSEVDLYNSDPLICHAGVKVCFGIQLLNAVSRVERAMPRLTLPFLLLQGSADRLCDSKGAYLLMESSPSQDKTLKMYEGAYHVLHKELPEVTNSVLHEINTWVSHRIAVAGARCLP
Put plainly: 2-AG accumulation assay in rat brain homogenate. It counts as biochemical. To be noted: rat brain homogenate, 2-AG accumulation as percent of vehicle; for 2-AG accumulation, % of vehicle control at 10 µM: compound 10 μM, read-out: Rat Brain 2AG % VehCntrl (%) @ 10 μM; for 2-AG accumulation, % of vehicle control at 1 µM: compound 1 μM, read-out: Rat Brain 2AG % VehCntrl (%) @ 1 μM.

For the next experiment, the target named is T3, mutant MGL (Homo sapiens, UniProt Q99685, L169S/L176S).
T3 sequence (Q99685 1-303 L169S/L176S): T1 sequence (Q99685 1-303) with L169S, L176S
Briefly: MGL ThermoFluor assay - mutant. It counts as binding. The note with it: read-out: MGL mutant ThermoFluor Kd. (In DSF a fluorescence change marks the thermal transition of the protein.)

Setting [2] is: ThermoFluor concentration-response.
[3] abbreviates: ThermoFluor thermal stability binding assay.

`Cc1nc(-c2ccccc2)sc1C(=O)N1CC(N2CCN(C(=O)c3nccs3)CC2)C1` [Cpd 133, 1-{1-[(4-Methyl-2-phenyl-1,3-thiazol-5-yl)-carbonyl]azetidin-3-3yl}-4-(1,3-thiazol-2-ylcarbonyl)piperazine] had an IC50 in experiment [1] of 67.3 nM. In addition, the 2-AG accumulation, % of vehicle control at 10 µM on MGL is 623%.

Turning to `O=C(c1ccc(Oc2cccc(C(F)(F)F)c2)nc1)N1CC(N2CCN(C(=O)c3cscn3)CC2)C1` [Cpd 689], the concentration for half-maximal inhibition (IC50) in experiment [1] was determined as 45 nM. The 2-AG accumulation, % of vehicle control at 1 µM at MGL was found to be 136%.

Consider `O=C(c1ccc(N2CCCCCC2)cc1)N1CC(N2CCN(C(=O)c3nccs3)CC2)C1` [Cpd 888], for which the IC50 in experiment [1] is below 5 nM. For the same compound, the 2-AG accumulation, % of vehicle control at 1 µM on MGL came out at 940%.

In turn, `O=C(c1ccccc1)N1CCN(C2CN(C(=O)c3ccc(-c4ccccc4C(F)(F)F)cc3)C2)CC1` [Cpd 72, 1-(Phenylcarbonyl)-4-(1-{[2′-(trifluoromethyl)biphenyl-4-yl]carbonyl}azetidin-3-yl)piperazine] showed an IC50 in experiment [1] of 326 nM. In addition, the 2-AG accumulation, % of vehicle control at 10 µM on MGL stood at 334%.

Consider `O=C(c1ccc(Cc2cccc(C(F)(F)F)c2)cc1)N1CC(N2CCN(C(=O)c3cscn3)CC2)C1` [Cpd 998], for which the IC50 in experiment [1] was below 5 nM. Moreover, the 2-AG accumulation, % of vehicle control at 1 µM on MGL was 639%.

Turning to `O=C(c1ccc2c(c1)CCCN2C(=O)C1CCC1)N1CC(N2CCN(C(=O)c3nccs3)CC2)C1` [Cpd 364], in experiment [1], the IC50 turned out to be 210 nM. The 2-AG accumulation, % of vehicle control at 1 µM on MGL was determined as 581%.

For `O=C(c1ccc(-c2cc(Cl)cc(Cl)c2)cc1)N1CC(N2CCN(C(=O)c3nccs3)CC2)C1` [Cpd 164, 1-{1-[(3′,5′-Dichlorobiphenyl-4-yl)carbonyl]azetidin-3-yl}-4-(1,3-thiazol-2-ylcarbonyl)piperazine], the Kd at mutant MGL (setting [2]) turned out to be 1.11 nM. In addition, the 2-AG accumulation, % of vehicle control at 10 µM on MGL amounted to 969%.

For `O=C(c1ccccc1)N1CCN(C2CN(C(=O)c3ccc(-c4ccc(Cl)c(C(F)(F)F)c4)cc3Cl)C2)CC1` [Cpd 268, 1-(1-{[3,4′-Dichloro-3′-(trifluoromethyl)biphenyl-4-yl]carbonyl}azetidin-3-yl)-4-(phenylcarbonyl)piperazine], at mutant MGL (setting [3]), the Kd was determined as 25 nM. Moreover, the 2-AG accumulation, % of vehicle control at 1 µM on MGL turned out to be 110%.

As to `[2H]c1c([2H])c([2H])c(C(=O)N2CCN(C3CN(C(=O)c4ccc(-c5cccc(C(F)(F)F)c5)cc4)C3)CC2)c([2H])c1[2H]` [Cpd 186-A], at mutant MGL (setting [3]), the Kd turned out to be 16 nM. For the same compound, the 2-AG accumulation, % of vehicle control at 1 µM on MGL came to 149%.

As to `Cc1nc(-c2ccc(Cl)cc2)sc1C(=O)N1CC(N2CCN(C(=O)c3cscn3)CC2)C1` [Cpd 1384], the Kd on mutant MGL (setting [3]) is 61 nM. The 2-AG accumulation, % of vehicle control at 1 µM at MGL turned out to be 313%.

`O=C(c1ccc(-c2ccccc2)cc1)N1CC(N2CCN(C(=O)c3ccc(Br)o3)CC2)C1` [Cpd 12, 1-[1-(Biphenyl-4-ylcarbonyl)azetidin-3-yl]-4-[(5-bromofuran-2-yl)carbonyl]piperazine]: on mutant MGL (setting [2]), the Kd stood at 14.3 nM. The 2-AG accumulation, % of vehicle control at 10 µM at MGL was found to be 448%.

Turning to `O=C(c1ccc(COc2cccc(Cl)c2)cc1)N1CC(N2CCN(C(=O)c3nccs3)CC2)C1` [Cpd 453, 1-[1-({4-[(3-Chlorophenoxy)methyl]phenyl}carbonyl)azetidin-3-yl]-4-(1,3-thiazol-2-ylcarbonyl)piperazine], the Kd at mutant MGL (setting [2]) turned out to be 12 nM. The 2-AG accumulation, % of vehicle control at 1 µM on MGL is 917%.

Regarding `O=C(c1cc2ccc(C(F)(F)F)cc2s1)N1CC(N2CCN(C(=O)c3nccs3)CC2)C1` [Cpd 323, 1-(1,3-Thiazol-2-ylcarbonyl)-4-(1-{[6-(trifluoromethyl)-1-benzothiophen-2-yl]carbonyl}azetidin-3-yl)piperazine], the Kd at mutant MGL (setting [3]) is 1.3 nM. For the same compound, at MGL, the 2-AG accumulation, % of vehicle control at 10 µM is 494%.

With `O=C(c1ccc(OCc2ccncc2)c(Cl)c1)N1CC(N2CCN(C(=O)c3nccs3)CC2)C1` [Cpd 398, 1-(1-{[3-Chloro-4-(pyridin-4-ylmethoxy)phenyl]carbon-yl}azetidin-3-yl)-4-(1,3-thiazol-2-ylcarbonyl)piperazine], the Kd on mutant MGL (setting [3]) was determined as 86.9 nM. For the same compound, at MGL, the 2-AG accumulation, % of vehicle control at 1 µM turned out to be 392%.

As for `O=C(c1ccc2c(c1)CCCN2C(=O)C1CCCCC1)N1CC(N2CCN(C(=O)c3nccs3)CC2)C1` [Cpd 360], the Kd on mutant MGL (setting [3]) was 68 nM. The 2-AG accumulation, % of vehicle control at 1 µM on MGL came out at 819%.

As for `O=C(c1ccc(-c2ccccc2)cc1)N1CC(N2CCN(C(=O)c3ccns3)CC2)C1` [Cpd 310, 1-[1-(Biphenyl-4-ylcarbonyl)azetidin-3-yl]-4-(isothiazol-5-ylcarbonyl)piperazine], the Kd on mutant MGL (setting [3]) worked out at 250 nM. For the same compound, at MGL, the 2-AG accumulation, % of vehicle control at 1 µM worked out at 141%.

In the case of `COc1cc(C(=O)N2CC(N3CCN(C(=O)c4ccccc4)CC3)C2)ccc1-c1ccccc1` [Cpd 615], the Kd on mutant MGL (setting [2]) was found to be 97 nM. Further, on MGL, the 2-AG accumulation, % of vehicle control at 1 µM worked out at 123%.

As for `Cc1cc(-c2ccc(F)c(Cl)c2)ccc1C(=O)N1CC(N2CCN(C(=O)c3ccccc3)CC2)C1` [Cpd 255, 1-{1-[(3′-Chloro-4′-fluoro-3-methylbiphenyl-4-yl)carbonyl]azetidin-3-yl}-4-(phenylcarbonyl)piperazine], on mutant MGL (setting [3]), the Kd was determined as 27 nM. In addition, on MGL, the 2-AG accumulation, % of vehicle control at 1 µM was found to be 115%.

Take `O=C(c1cscn1)N1CCN(C2CN(C(=O)c3sc4cc(F)ccc4c3Cl)C2)CC1` [Cpd 929]: the Kd at mutant MGL (setting [3]) is 20 nM. At MGL, the 2-AG accumulation, % of vehicle control at 1 µM is 301%.

Take `O=C(c1ccccc1)N1CCN(C2CN(C(=O)c3sc4cc(-c5ccccc5)ccc4c3Cl)C2)CC1` [Cpd 344]: on mutant MGL (setting [3]), the Kd came out at 10 nM. Further, the 2-AG accumulation, % of vehicle control at 1 µM on MGL came to 238%.

Consider `O=C(c1ccc(Cc2ccccc2)cc1)N1CCN(C2CN(C(=O)c3ccccc3)C2)CC1` [Cpd 61, 1-[(4-Benzylphenyl)carbonyl]-4-[1-(phenylcarbonyl)azetidin-3-yl]piperazine], for which the Kd at mutant MGL (setting [2]) came out at 29 nM. Moreover, on MGL, the 2-AG accumulation, % of vehicle control at 10 µM turned out to be 604%.

As for `O=C(c1ccccc1)N1CCN(C2CN(C(=O)c3ccc(OCc4ccccn4)c(Cl)c3)C2)CC1` [Cpd 406], on mutant MGL (setting [3]), the Kd was 932 nM. In addition, the 2-AG accumulation, % of vehicle control at 1 µM on MGL turned out to be 99%.

`O=C(c1ccc(OCc2ccncc2)cc1)N1CC(N2CCN(C(=O)c3nccs3)CC2)C1` [Cpd 403, 1-(1-{[4-(Pyridin-4-ylmethoxy)phenyl]carbonyl}azetidin-3-yl)-4-(1,3-thiazol-2-ylcarbonyl)piperazine]: the Kd at mutant MGL (setting [3]) stood at 338 nM. The 2-AG accumulation, % of vehicle control at 1 µM on MGL worked out at 188%.

Consider `O=C(c1cc[nH]c1)N1CCN(C2CN(C(=O)c3ccc(-c4ccccc4)cc3)C2)CC1` [Cpd 311, 1-[1-(Biphenyl-4-ylcarbonyl)azetidin-3-yl]-4-(1H-pyrrol-3-ylcarbonyl)piperazine], for which the Kd on mutant MGL (setting [3]) was 80 nM. The 2-AG accumulation, % of vehicle control at 1 µM on MGL stood at 125%.

For `O=C(c1ccc(Sc2cccc(Cl)c2)cc1)N1CC(N2CCN(C(=O)c3cscn3)CC2)C1` [Cpd 429], at mutant MGL (setting [2]), the Kd turned out to be 33.1 nM. In addition, at MGL, the 2-AG accumulation, % of vehicle control at 1 µM amounted to 318%.

Turning to `O=C(c1ccc2c(c1)CCCN2S(=O)(=O)c1cccc(C(F)(F)F)c1)N1CC(N2CCN(C(=O)c3nccs3)CC2)C1` [Cpd 367, 6-({3-[4-(1,3-Thiazol-2-ylcarbonyl)piperazin-1-yl]azetidin-1-yl}carbonyl)-1-{[3-(trifluoromethyl)phenyl]sulfonyl}-1,2,3,4-tetrahydroquinoline], the Kd at mutant MGL (setting [3]) stood at 85.3 nM. Further, the 2-AG accumulation, % of vehicle control at 1 µM on MGL came to 701%.

What is called IC50 is the concentration needed to halve the response being measured. Low values mean greater potency in that assay, high ones weaker potency in that assay. Usually Kd stands for the free concentration of one partner at which half of the binding sites on the other are occupied at equilibrium, for simple one-to-one binding.
